Read-outs that look alike come from different tables or passages of the source.
Legend:
[1] = target: T1, CYP2A6 (Homo sapiens, UniProt P11509); experiment: Fluorometric HTS enzyme assay, recombinant CYP2A6 (coumarin substrate); format: biochemical; details: ±SEM, 3 replicate assays; 3 μM coumarin
T1 construct: purchased BD Bioscience (Woburn, MA); host or cells: baculovirus-infected insect cells (microsomes, supersomes)
T1 sequence (P11509 1-494): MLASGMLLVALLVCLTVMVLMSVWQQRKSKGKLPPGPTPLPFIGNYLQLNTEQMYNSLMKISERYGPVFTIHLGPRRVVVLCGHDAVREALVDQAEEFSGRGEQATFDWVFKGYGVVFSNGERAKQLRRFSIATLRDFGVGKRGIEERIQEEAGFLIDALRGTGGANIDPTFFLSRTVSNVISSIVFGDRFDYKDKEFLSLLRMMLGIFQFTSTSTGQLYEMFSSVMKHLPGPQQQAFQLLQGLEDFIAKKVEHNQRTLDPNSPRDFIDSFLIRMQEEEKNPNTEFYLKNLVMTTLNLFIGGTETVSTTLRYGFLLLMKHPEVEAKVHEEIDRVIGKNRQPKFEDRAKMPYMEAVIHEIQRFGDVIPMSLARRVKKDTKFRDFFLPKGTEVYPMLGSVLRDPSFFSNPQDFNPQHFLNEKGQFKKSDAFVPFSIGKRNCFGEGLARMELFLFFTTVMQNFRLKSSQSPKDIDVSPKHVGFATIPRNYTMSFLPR
Method: (§1) IC50 determinations for human CYPs were similar to HTS methods described by Crespi et al.. Unless otherwise stated, the incubations were carried out in a total volume of 200 μL of 50 mM potassium phosphate buffer (pH 7.4) with 1% acetonitrile. The reaction mixtures contained NADPH-regenerating system in potassium phosphate buffer (pH 7.4) and varying amounts of inhibitor (dissolved in 100% acetonitrile) were preincubated at 37°C for 10 minutes (except CYP2A6 which was in 100 mM Tris buffer pH 7.4). The reactions were initiated by the addition of enzyme/substrate mixture (see Table 1), followed by incubation at 37°C for 30 minutes. The fluorescent signal was measured using a SpectraMax GEMINI XPS (Molecular Devices) with excitation and emission wavelengths listed in Table 1. The data were fit to sigmoidal dose-response curves with nonlinear regression and IC50 values calculated using GraphPad Prism 5.

[2] = target: T2, CYP1A1 (Homo sapiens, UniProt P04798); experiment: Fluorometric HTS enzyme assay, recombinant CYP1A1 (CEC substrate); format: biochemical; details: ±SEM, 3 replicate assays; 5 μM CEC
T2 construct: purchased BD Bioscience (Woburn, MA); host or cells: baculovirus-infected insect cells (microsomes, supersomes)
T2 sequence (P04798 1-512): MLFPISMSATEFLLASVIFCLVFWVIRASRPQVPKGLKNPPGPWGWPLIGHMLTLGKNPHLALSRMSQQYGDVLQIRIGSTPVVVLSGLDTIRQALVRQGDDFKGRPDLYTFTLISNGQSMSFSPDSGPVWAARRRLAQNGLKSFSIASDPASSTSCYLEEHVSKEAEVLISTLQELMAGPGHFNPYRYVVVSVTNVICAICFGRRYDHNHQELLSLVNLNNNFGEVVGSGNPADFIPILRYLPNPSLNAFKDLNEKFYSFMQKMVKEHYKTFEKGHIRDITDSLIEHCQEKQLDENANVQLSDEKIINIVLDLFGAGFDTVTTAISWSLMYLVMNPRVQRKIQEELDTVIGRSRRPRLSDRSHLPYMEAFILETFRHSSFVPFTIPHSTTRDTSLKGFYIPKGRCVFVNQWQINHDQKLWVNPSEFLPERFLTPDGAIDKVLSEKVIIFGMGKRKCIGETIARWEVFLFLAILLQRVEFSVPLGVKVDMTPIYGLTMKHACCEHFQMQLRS
Method: as §1

[3] = cited from earlier work
[4] = test system: CYP1B1; parameters: method as in PMID 18256205; details: cited from earlier work
[5] = target: T3, CYP3A4 (Homo sapiens, UniProt P08684); experiment: Fluorometric HTS enzyme assay, recombinant CYP3A4 (BFC substrate); format: biochemical; details: recombinant CYP3A4, pH 7.4, probe BFC, at 1 mM
T3 construct: purchased BD Bioscience (Woburn, MA); host or cells: baculovirus-infected insect cells (microsomes, supersomes)
T3 sequence (P08684 whole entry): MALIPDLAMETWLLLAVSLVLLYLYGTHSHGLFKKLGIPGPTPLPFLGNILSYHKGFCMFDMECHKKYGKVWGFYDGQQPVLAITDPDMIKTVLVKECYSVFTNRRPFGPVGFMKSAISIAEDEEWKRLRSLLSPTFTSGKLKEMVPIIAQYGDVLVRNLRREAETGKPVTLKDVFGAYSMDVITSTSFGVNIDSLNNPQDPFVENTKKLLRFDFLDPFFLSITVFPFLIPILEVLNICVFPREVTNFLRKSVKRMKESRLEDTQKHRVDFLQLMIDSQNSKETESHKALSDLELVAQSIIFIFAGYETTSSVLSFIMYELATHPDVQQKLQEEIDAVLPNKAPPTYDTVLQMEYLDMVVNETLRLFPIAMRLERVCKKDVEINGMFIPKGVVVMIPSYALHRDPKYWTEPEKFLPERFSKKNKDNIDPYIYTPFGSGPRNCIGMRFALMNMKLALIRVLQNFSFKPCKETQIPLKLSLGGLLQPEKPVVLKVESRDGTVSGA
Method: as §1

| SMILES | IC50 [1] | IC50 [2] | effect of pretreatment on [11C]-vorozole binding in the liver ([3]; baboon and human liver, pretreatment with letrozole) | IC50 ([4]; 2-hydroxy estradiol formation, read-out: IC50 on CYP1B1, estradiol 2-hydroxylation) | IC50 ([4]; 4-hydroxy estradiol formation, read-out: IC50 on CYP1B1, estradiol 4-hydroxylation) | inhibition at 30 min, 1 mM [5] | effect of pretreatment on liver pharmacokinetics of [11C]-vorozole binding ([3]; pretreatment with ketoconazole) |
| --- | --- | --- | --- | --- | --- | --- | --- |
| N#Cc1ccc(C(c2ccc(C#N)cc2)n2cncn2)cc1 [Letrozole] | 106 ± 34 µM | 69.8 ± 5.3 µM | does not block | ≥ 100 µM | ≥ 100 µM | < 10% |  |
| CC(=O)N1CCN(c2ccc(OCC3COC(Cn4ccnc4)(c4ccc(Cl)cc4Cl)O3)cc2)CC1 (stereo not shown) [ketoconazole] |  |  |  |  |  |  | altered |

Reference: PMC4655258 (Enzyme Research, 2015)
